Measurements published in patent publication US6242446A, “Method for treating attention deficit disorder” (Merck & Co., Inc., priority 2000, dated 2001).
Read-outs that look alike come from different tables or passages of the source.

Key:
[1] = test system: distress vocalisations in guinea-pig pups; assay: Separation-Induced Vocalisation Assay; type: in vivo, guinea-pigs; conditions: Cavia porcellus, po; 4 hr. pre-treatment; read-out: guinea-pig vocalisation (4 hr. pre-treatment) ID50
Description: Separation-Induced Vocalisation Assay Male and female guinea-pigs pups are housed in family groups with their mothers and littermates throughout the study. Experiments are commenced […] when the pups are 2 weeks old. Before entering an experiment, the pups are screened to ensure that a vigorous vocalisation response is reproducibly elicited following maternal separation. The pups are placed individually in an observation cage (55 cm×39 cm×19 cm) in a room physically isolated from the home cage for 15 minutes and the duration of vocalisation during this baseline period is recorded. Only animals which vocalise for longer than 5 minutes are employed for drug challenge studies (approximately 50% of available pups may fail to reach this criterion). On test days each pup receives an oral dose or a s.c. or i.p. injection of test compound or vehicle and is then immediately returned to the home cage with its mother and siblings for 30 minutes to 60 minutes (or for up to 4 hours following an oral dose, dependant upon the oral pharmacokinetics of the test compound) before social isolation for 15 minutes as described above. The duration of vocalisation on drug treatment days is expressed as a percentage of the pre-treatment baseline value for each animal. The same subjects are retested once weekly for up to 6 weeks. Between 6 and 8 animals receive each test compound at each dose tested. […]

[2] = test system: cisplatin-induced emesis in ferrets; assay: Ferret Emesis Assay (cisplatin-induced emesis); type: in vivo; conditions: Mustela putorius, po; cisplatin 10 mg/kg i.v.; 4 hours observation; read-out: ferret emesis ID90
Description: Individually housed male ferrets (1.0-2.5 kg) are dosed orally by gavage with test compound. Ten minutes later they are fed with approximately 100 g of tinned cat food. At 60 minutes following oral dosing, cisplatin (10 mg/kg) is given i.v. via a jugular vein catheter inserted under a brief period of halothane anaesthesia. The catheter is then removed, the jugular vein ligated and the skin incision closed. The ferrets recover rapidly from the anaesthetic and are mobile within 10-20 minutes. The animals are observed continuously during recovery from the anaesthetic and for 4 hours following the cisplatin injection, after which time the animals are killed humanely. The numbers of retches and vomits occurring during the 4 hours after cisplatin administration are recorded by trained observers.

foot tapping in gerbils = assay: Gerbil Foot-Tapping Assay (induced by central injection of an NK1 agonist); type: in vivo, Mongolian gerbils; conditions: Meriones unguiculatus, iv
Description: Gerbil Foot-Tapping Assay CNS penetrant NK-1 receptor antagonists for use in the resent invention can be identified by their ability to inhibit foot tapping in gerbils induced by anxiogenic agents (such as pentagastrin) or central infusion of NK-1 receptor agonists such as GR-73632, or caused by aversive stimulation such as foot shock or single housing, based on the method of Rupniak & Williams, Eur. J. Pharmacol., 1994, 265, 179. Male or female Mongolian gerbils (35-70 g) are anaesthetised by inhalation of an isoflurane/oxygen mixture to permit exposure of the jugular vein in order to permit administration of test compounds or vehicle in an injection volume of 5 ml/kg i.v. Alternatively, test compounds may be administered orally or by subcutaneous or intraperitoneal routes. The wound is closed and a second skin incision is made in the midline of the scalp to expose the skull. […] The duration and/or intensity of hind foot tapping is then recorded continuously for 5 minutes. Alternatively, the ability of test compounds to inhibit foot tapping evoked by aversive stimulation, such as foot shock or single housing, may be studied using a similar method of quantification.

SMILES: C[C@@H](O[C@H]1OCCN(Cc2n[nH]c(=O)[nH]2)[C@H]1c1ccc(F)cc1)c1cc(C(F)(F)F)cc(C(F)(F)F)c1 [2-(R)-(1-(R)-(3,5-bis(trifluoromethyl)-phenyl)-ethoxy)-3-(S)-(4-fluorophenyl)-4-(3-(5-oxo-1H,4H-1,2,4-triazolo)methyl)-morpholine]
- ED50 [1]: 0.73 mg/kg
- ED90 [2]: < 3 mg/kg
- ED50 (foot tapping in gerbils; 5 min, i.v., 5 mins., read-out: gerbil foot-tapping (5 mins.) ID50): 0.36 mg/kg
- ED50 (foot tapping in gerbils; 24 hrs. prior to central NK1 agonist challenge, read-out: gerbil foot-tapping (24 hrs.) ID50): 0.33 mg/kg
